Experimental data taken from patent US7138242B2, “Olfactory receptor expression libraries and methods of making and using them” (Johns Hopkins University, priority 1998, dated 2006).

Experiments:
[1] = tested on: mouse olfactory receptor TM II–VII chimeric receptor library (pools of clones); assay: Ca2+ imaging screen of 80 library chimeric receptors (10 pools of eight constructs) against 26 odorants in HEK-293 cells with Gα15,16; format: cell-based; details: for response of a library receptor: micromolar concentrations, three receptors, respectively
Procedure: (§1) HEK-293 cells (obtained from the ATCC) were grown in DMEM supplemented with 10% fetal bovine serum, penicillin (100 U/ml), streptomycin (100 μg/ml) and L-glutamine (2 mM) in 5% CO2. Before transfection, the cells were seeded onto poly-L-lysine-coated 10.5×35×0.17 mm glass coverslips (Bellco) placed in the 60 mm culture dishes. Calcium phosphate-mediated transfections were performed in a 60 mm dish with 3 to 4 μg of receptor construct DNA, 1 μg of pCIS Gα 15 and Gα16 expression vector (Offermanns (1995) supra). 2 μg of pBluescript carrier DNA, and 0.3 μg of pRSV-T antigen expression vector (Gorman (1990) DNA and Protein Eng. Tech. 2:3–9). After 5 to 7 hr incubation, the cells were washed once with PBS containing 0.5 mM EDTA and 10% DMSO, then with PBS before continuing growth in regular media for 40–50 hr.
(§2) These transfected cells were then tested for their ability to functionally respond to ligand-receptor binding. The ligand, the adrenergic agonist isoproterenol, was “bath” applied to the transfected cells and single cell Ca^2+-imaging was performed. Cells were pre-loaded with the Ca^2+-sensitive fluorescent dye FURA-2 AM (Molecular Probes) by bathing in serum-free DMEM containing 4 μM of the membrane permeant chemical for 1 hr at 37° C., then washed with a standard bath solution (130 mM NaCl, 2 mM CaCl2, 5 mM KCl, 10 mM glucose, 10 mM Na.HEPES/pH 7.4 at room temperature). For each experiment, a glass coverslip with FURA-2 loaded HEK 293 cells was introduced into an open-topped, longitudinal microperfusion chamber (300 μl bath volume mounted on a Zeiss Axiovert 135 microscope equipped with an F Fluar 40×/1.30 oil-immersion lens. The cells were superfused with test solutions typically for 30 to 40 seconds (5 ml/application) and washed out with 5 ml of bath solution at the end of each application. Each test solution was freshly diluted and manually applied with a micropipette into the chamber. Because of this manual procedure, there could be several seconds of delay in actual application from electronic tick marks used to define the beginning of application in each graph. At the same time, the solution flow might not be completely laminar. In most cases, the onset of Ca2+ rise in response to a specific solution occurred within 15 seconds of the beginning of solution application, though longer delays were sometimes observed. Acetylcholine was applied at the end of each experiment at 10 μM for 15–20 seconds. Ratiometric Ca^2+ measurements were performed as described by Grynkiewicz (1985) 260:3440–3450, with modifications using the Zeiss/Attofluor-Ratiovision imaging system. At 5-second intervals, the cells were sequentially illuminated for less than 100 ms, first at 340 nm and then at 380 nm. Fluorescence emission at 510 nm was monitored for each excitation wavelength via an intensified CCD camera. Averaged pixel intensities within 40 to 100 regions of interest, corresponding to 40 to 100 individual cells, were digitized and stored on a computer. Attofluor-Ratiovision software (Atto Instruments) was used to determine the Ca^2+-dependent fluorescence signal expressed as the F340/F380 ratio.
The 7-transmembrane domain region TM II–VII expressing vector libraries of the invention were expressed in this cell expression system. Various odorant were screened for their ability to generate a physiologic response in the form of a calcium transient, as above. Eighty plasmid clones arrayed in microtiter plates were pooled into 10 groups of eight constructs each, and co-transfected with Gα15,16 into HEK-293 cells. […]

[2] = tested on: I-D3 chimeric olfactory receptor; assay: Ca2+ imaging, individual clone I-D3 in HEK-293 cells with Gα15,16; format: cell-based, mouse
Procedure: These transfected cells were then tested for their ability to functionally respond to ligand-receptor binding. The ligand, the adrenergic agonist isoproterenol, was “bath” applied to the transfected cells and single cell Ca^2+-imaging was performed. Cells were pre-loaded with the Ca^2+-sensitive fluorescent dye FURA-2 AM (Molecular Probes) by bathing in serum-free DMEM containing 4 μM of the membrane permeant chemical for 1 hr at 37° C., then washed with a standard bath solution (130 mM NaCl, 2 mM CaCl2, 5 mM KCl, 10 mM glucose, 10 mM Na.HEPES/pH 7.4 at room temperature). […] Fluorescence emission at 510 nm was monitored for each excitation wavelength via an intensified CCD camera. […] Attofluor-Ratiovision software (Atto Instruments) was used to determine the Ca^2+-dependent fluorescence signal expressed as the F340/F380 ratio. […]

[3] = tested on: full-length I-C6 receptor fused to translocation domain (rhodopsin tag); assay: Ca2+ imaging, full-length I-C6 receptor with rhodopsin tag in HEK-293 cells; format: cell-based, mouse
Procedure: PCR products were digested with PstI and BspEI restriction enzymes before size fractionation, purification and ligation into the pCMV-Rho/M4NC vector (see FIG. 1A). The vector ligation products were transformed into E. coli and 480 clones were placed in 96-well plates. […] Pools of cells from a single column of the plates (8 wells) were grown in a 50 ml culture and plasmid DNA prepared. Insert-containing vectors containing: the 5′-untranslated region of the rhodopsin gene, which included its coding region for the initiation methionine and the next 19 residues; joined to a full-length cDNA for a mouse olfactory receptor (M4 or I-C6), under the control of the CMV promoter, were also prepared. The full-length coding region of olfactory receptors mI7 and I-C6 were obtained by screening a mouse (129 SV/J) genomic phage (λFIX-II) library (2×10^6 independent clones) using ^32P-labeled DNA fragments (of TMII through VII sequence) of the respective receptors under stringent conditions (hybridized at 0.2×SSC at 65° C.). DNA fragments encoding the full-length receptors were cloned into pBluescript (Stratagene) and sequenced.
as §2
To determine if these physiologic responses were caused by ligand interaction with a full-length 7-membrane receptor, a genomic clone of the entire I-C6 receptor coding sequence was isolated and used to make a chimeric molecule incorporating the tranlocation domain of the invention (the “rhodopsin tag” sequence). The full-length I-C6 receptor retained the same stereo-selectivity as a chimeric receptor construct whose only I-C6 sequence was the transmembrane domains II through VII (i.e., the odorant/ligand binding domain). […]

[4] = tested on: Rho/M4NC-β2 TM II–VII (TM II–VII region from the β2-adrenergic receptor in pCMV-Rho/M4NC); assay: Single-cell FURA-2 Ca2+ imaging, HEK-293 cells co-transfected with Rho/M4NC-β2 TM II–VII and Gα15,16; format: cell-based, human
Procedure: HEK-293 cells (obtained from the ATCC) were grown in DMEM supplemented with 10% fetal bovine serum, penicillin (100 U/ml), streptomycin (100 μg/ml) and L-glutamine (2 mM) in 5% CO2. […] After 5 to 7 hr incubation, the cells were washed once with PBS containing 0.5 mM EDTA and 10% DMSO, then with PBS before continuing growth in regular media for 40–50 hr.
Efficient screening of expressed olfactory receptors with a large number of ligands by functional analysis requires a robust and sensitive assay system. […] In this reporter system, (olfactory) receptor activation leads to the generation of an IP3-mediated increase in intracellular Ca^2+, which can be measured at the single-cell level with high sensitivity and good temporal resolution using the dye FURA-2 and radiofluorometric imaging.
A construct with the TM II–VII region from the β2-adrenergic receptor inserted in the pCMV-Rho/M4NC vector (Rho/M4NC-β2 TM II–VII) was co-transfected with Gα15,16 into HEK-293 cells. […] Images of fluorescent cells were obtained on a Zeiss 510 confocal microscope with excitation at 488 nm.
These transfected cells were then tested for their ability to functionally respond to ligand-receptor binding. The ligand, the adrenergic agonist isoproterenol, was “bath” applied to the transfected cells and single cell Ca^2+-imaging was performed. Cells were pre-loaded with the Ca^2+-sensitive fluorescent dye FURA-2 AM (Molecular Probes) by bathing in serum-free DMEM containing 4 μM of the membrane permeant chemical for 1 hr at 37° C., then washed with a standard bath solution (130 mM NaCl, 2 mM CaCl2, 5 mM KCl, 10 mM glucose, 10 mM Na.HEPES/pH 7.4 at room temperature). […] Acetylcholine was applied at the end of each experiment at 10 μM for 15–20 seconds. […] At 5-second intervals, the cells were sequentially illuminated for less than 100 ms, first at 340 nm and then at 380 nm. Fluorescence emission at 510 nm was monitored for each excitation wavelength via an intensified CCD camera. Averaged pixel intensities within 40 to 100 regions of interest, corresponding to 40 to 100 individual cells, were digitized and stored on a computer. Attofluor-Ratiovision software (Atto Instruments) was used to determine the Ca^2+-dependent fluorescence signal expressed as the F340/F380 ratio.

[5] = tested on: endogenous β-adrenergic receptors; assay: Single-cell FURA-2 Ca2+ imaging, HEK-293 cells transfected with the G protein subunits (Gα15,16) alone; format: cell-based, human; details: no receptor construct
Procedure: as §1
These transfected cells were then tested for their ability to functionally respond to ligand-receptor binding. The ligand, the adrenergic agonist isoproterenol, was “bath” applied to the transfected cells and single cell Ca^2+-imaging was performed. […] Fluorescence emission at 510 nm was monitored for each excitation wavelength via an intensified CCD camera. […] Attofluor-Ratiovision software (Atto Instruments) was used to determine the Ca^2+-dependent fluorescence signal expressed as the F340/F380 ratio. […]

[6] = tested on: I-G7 chimeric olfactory receptor; assay: Ca2+ imaging, individual clone I-G7 in HEK-293 cells with Gα15,16; format: cell-based, mouse; details: 10 μM
Procedure: These transfected cells were then tested for their ability to functionally respond to ligand-receptor binding. The ligand, the adrenergic agonist isoproterenol, was “bath” applied to the transfected cells and single cell Ca^2+-imaging was performed. Cells were pre-loaded with the Ca^2+-sensitive fluorescent dye FURA-2 AM (Molecular Probes) by bathing in serum-free DMEM containing 4 μM of the membrane permeant chemical for 1 hr at 37° C., then washed with a standard bath solution (130 mM NaCl, 2 mM CaCl2, 5 mM KCl, 10 mM glucose, 10 mM Na.HEPES/pH 7.4 at room temperature). For each experiment, a glass coverslip with FURA-2 loaded HEK 293 cells was introduced into an open-topped, longitudinal microperfusion chamber (300 μl bath volume mounted on a Zeiss Axiovert 135 microscope equipped with an F Fluar 40×/1.30 oil-immersion lens. The cells were superfused with test solutions typically for 30 to 40 seconds (5 ml/application) and washed out with 5 ml of bath solution at the end of each application. Each test solution was freshly diluted and manually applied with a micropipette into the chamber. Because of this manual procedure, there could be several seconds of delay in actual application from electronic tick marks used to define the beginning of application in each graph. At the same time, the solution flow might not be completely laminar. In most cases, the onset of Ca2+ rise in response to a specific solution occurred within 15 seconds of the beginning of solution application, though longer delays were sometimes observed. Acetylcholine was applied at the end of each experiment at 10 μM for 15–20 seconds. Ratiometric Ca^2+ measurements were performed as described by Grynkiewicz (1985) 260:3440–3450, with modifications using the Zeiss/Attofluor-Ratiovision imaging system. […] Fluorescence emission at 510 nm was monitored for each excitation wavelength via an intensified CCD camera. […] Attofluor-Ratiovision software (Atto Instruments) was used to determine the Ca^2+-dependent fluorescence signal expressed as the F340/F380 ratio. […]

Compound: C=C(C)[C@H]1CC=C(C)C(=O)C1 [(+) carvone]
- intracellular Ca2+ response of a clone pool ([1]; 10 μM, odorants applied sequentially): lack of response
- intracellular Ca2+ response [2]: responsive

Compound: CC(C)=CCC/C(C)=C/C=O [+/− citral]
- intracellular Ca2+ response ([3]; 30 μM): only 30 μM (−) citronellyl bromide elicited a small response

Compound: C=C(C)C1CC=C(C)C(=O)C1 (centres unmarked) [carvone]
- response of a library receptor [1]: responded
- intracellular Ca2+ response ([3]; 100 μM): no responses

Compound: CC(C)NCC(O)c1ccc(O)c(O)c1 (centres unmarked) [isoproterenol]
- intracellular Ca2+ response (FURA-2 F340/F380) ([4]; bath application, cells co-transfected with Gα15,16): transient increase in intracellular Ca^2+
- Ca2+ response to a second application ([4]; second application (desensitization)): frequently failed to elicit a response
- dependence of the Ca2+ transient on Gα15,16 ([4]; with vs without cotransfected Gα15,16): dependent on cotransfection with the Gα15,16 subunits
- intracellular Ca2+ response [5]: small response

Compound: C=C(C)[C@H]1CC=C(C)CC1 [limonene]
- response of a library receptor [1]: responded
- intracellular Ca2+ response ([3]; 100 μM): no responses

Compound: (−) citral demethyl acetal
- intracellular Ca2+ response ([3]; 30 μM): only 30 μM (−) citronellyl bromide elicited a small response

Compound: (−) limonene
- Ca2+ response relative to the (+) isomer [6]: perhaps not as well
- intracellular Ca2+ response [6]: responded
